Measurements from patent US4110327A, “2,3 Diketo-piperazinocarbonylamino alkanoic acids and derivatives” (Toyama Chemical Co., Ltd., priority 1974, dated 1978).

What was measured:
Proteus rettgeri = assay: MIC against clinical isolates; type: cell-based; settings: clinical isolate, unit assumed
Salmonella typhi = assay: MIC against clinical isolates; type: cell-based; settings: unit assumed
Escherichia coli NIHJ = assay: MIC against standard strain, plate method; type: cell-based; settings: unit assumed
In short: (§1)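 MIC values come from the plate method on heart infusion agar at pH 7.4, with each plate receiving 10^4 cells from a 10^6 cells/ml suspension.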

[1] = system: Pseudomonas aeruginosa I.F.O.; assay: MIC against standard strain, plate method; type: cell-based; settings: unit assumed
In short: as §1

[2] = system: Staphylococcus aureus 209p; assay: MIC against standard strain, plate method; type: cell-based; settings: unit assumed
In short: as §1

Proteus vulgaris 3027 = assay: MIC against standard strain, plate method; type: cell-based; settings: Proteus vulgaris 3027, standard strain; unit assumed
In short: as §1

Klebsiella pneumoniae [3] = assay: MIC against standard strain, plate method; type: cell-based; settings: unit assumed
In short: as §1

Salmonella typhi-murium = assay: MIC against clinical isolates; type: cell-based; settings: unit assumed
Proteus morganii = assay: MIC against clinical isolates; type: cell-based; settings: clinical isolate, unit assumed
Escherichia coli = assay: MIC against clinical isolates; type: cell-based; settings: unit assumed
Pseudomonas aeruginosa = assay: MIC against clinical isolates; type: cell-based; settings: unit assumed
Proteus vulgaris = assay: MIC against clinical isolates; type: cell-based; settings: clinical isolate, unit assumed
Shigella flexneri = assay: MIC against clinical isolates; type: cell-based; settings: clinical isolate JS 11839; unit assumed
Protocol: (§2) The minimum inhibitory concentrations (MIC) was determined by the plate method disclosed in "Chemotherapy" (Japan), Vol. 16, (1968), pages 98 - 99. The culture medium used was a Heart infusion agar (pH 7.4). The number of the cells per plate used in the inoculum as 10^4 (10^6 cells/ml).
(§3) MIC was determined in the same manner as in the preceding paragraph (1).

Shigella sonnei = assay: MIC against clinical isolates; type: cell-based; settings: unit assumed
Protocol: as §2, §3

Staphylococcus aureus = assay: MIC against clinical isolates; type: cell-based; settings: unit assumed
Proteus mirabilis = assay: MIC against clinical isolates; type: cell-based; settings: clinical isolate, unit assumed
Klebsiella pneumoniae [4] = assay: MIC against clinical isolates; type: cell-based; settings: unit assumed
β-lactamase = assay: Resistant activity against β-lactamase, iodometric assay; type: biochemical, Pseudomonas aeruginosa GN 238; settings: relative to Potassium Penicillin G = 100
Protocol: (3) Resistant activity against β-lactamase, Pseudomonas aergionan GN 238:
The resistant activity of each compound against β-lactamase was measured in the manner described below.
β-Lactamase was prepared from Pseudomonas aeruginosa GN 238. This microorganism was cultured in 100 ml of a medium containing 2 g of yeast extract, 10 g of polypeptone, 2 g of glucose, 7 g of disodium hydrogen phosphate, 2 g of potassium dihydrogen phosphate, 1.2 g of ammonium sulfate and 0.4 g of magnesium sulfate, per liter, in a 500-ml Erlenmeyer flask for 6 hrs. at 37° C with shaking. The resulting cells were collected by centrifugation (5,000 r.p.m. × 10 min.), washed three times with 0.1 M phosphate buffer (pH 7.0). Subsequently, the cells were subjected to sonication (20 KHz, 20 min.) and then centrifuged at 15,000 r.p.m. for 60 min. By using the supernatant of enzyme fluid, the resistance of each compound against β-lactamase was determined by the iodometric assay method. Each numeral shown in Table 7 is a relative activity value calculated by assuming as 100 the activity of the control Potassium Penicillin G.

[5] = clinical isolate GN (number not given; Table 5-3)

CC1(C)S[C@@H]2[C@H](NC(=O)[C@H](N)c3ccccc3)C(=O)N2[C@H]1C(=O)O [Sodium Ampicillin, SodiumAmpicillin, reference compound]
< 1.57 µg/mL: MIC (Escherichia coli NIHJ) | MIC [2] | MIC (Proteus morganii) | MIC (Proteus mirabilis)
0.78 µg/mL: MIC (Salmonella typhi; clinical isolate SL 2169)
6.25 µg/mL: MIC (Escherichia coli; clinical isolate GN 3452) | MIC (Escherichia coli; clinical isolate GN 3481) | MIC (Escherichia coli; clinical isolate K-1) | MIC (Escherichia coli; clinical isolate K-2) | MIC (Shigella sonnei; clinical isolate JS 11755) | MIC (Staphylococcus aureus; clinical isolate MS 8588)
> 200 µg/mL: MIC [1] | MIC (Proteus vulgaris 3027) | MIC (Salmonella typhi-murium; clinical isolate SL 2136) | MIC (Escherichia coli; clinical isolate GN 3611) | MIC (Escherichia coli; clinical isolate K-3) | MIC (Pseudomonas aeruginosa; clinical isolate GN 82) | MIC (Pseudomonas aeruginosa; clinical isolate GN 163) | MIC (Pseudomonas aeruginosa; clinical isolate GN 221) | MIC (Pseudomonas aeruginosa; clinical isolate GN 376) | MIC (Pseudomonas aeruginosa; clinical isolate GN 383) | MIC (Pseudomonas aeruginosa; clinical isolate GN 1035) | MIC (Pseudomonas aeruginosa; clinical isolate GN 1091) | MIC (Pseudomonas aeruginosa; clinical isolate GN 2565) | MIC (Pseudomonas aeruginosa; clinical isolate GN 2987) | MIC (Pseudomonas aeruginosa; [5]) | MIC (Pseudomonas aeruginosa; clinical isolate S-1) | MIC (Pseudomonas aeruginosa; clinical isolate S-2) | MIC (Pseudomonas aeruginosa; clinical isolate S-3) | MIC (Pseudomonas aeruginosa; clinical isolate S-4) | MIC (Shigella sonnei; clinical isolate JS 11232) | MIC (Klebsiella pneumoniae [4]; clinical isolate GN 4081) | MIC (Klebsiella pneumoniae [4]; clinical isolate GN 4117)
3.13 µg/mL: MIC (Salmonella typhi-murium; clinical isolate SL 858)
1.57 µg/mL: MIC (Shigella flexneri)
25 µg/mL: MIC (Klebsiella pneumoniae [4]; clinical isolate GN 917)
0.79 µg/mL: MIC (Staphylococcus aureus; clinical isolate F-2)
< 0.4 µg/mL: MIC (Staphylococcus aureus; clinical isolate MS 8619)
50 µg/mL: MIC (Klebsiella pneumoniae [3]) | MIC (Staphylococcus aureus; clinical isolate F-5) | MIC (Klebsiella pneumoniae [4]; clinical isolate GN 3850)
< 1.5 µg/mL: MIC (Proteus vulgaris)
1.56 µg/mL: MIC (Salmonella typhi; clinical isolate SL 819)
200 µg/mL: MIC (Proteus rettgeri)

CC1(C)S[C@@H]2[C@H](NC(=O)C(c3ccccc3)S(=O)(=O)O)C(=O)N2[C@H]1C(=O)O (stereo partly drawn) [Sodium Sulbenicillin, SodiumSulbenicillin, reference compound]
100 µg/mL: MIC (Pseudomonas aeruginosa; clinical isolate GN 1035) | MIC (Pseudomonas aeruginosa; clinical isolate GN 2565) | MIC (Pseudomonas aeruginosa; clinical isolate S-1) | MIC (Pseudomonas aeruginosa; clinical isolate S-2) | MIC (Pseudomonas aeruginosa; clinical isolate S-3) | MIC (Pseudomonas aeruginosa; clinical isolate S-4)
3.13 µg/mL: MIC [2] | MIC (Staphylococcus aureus; clinical isolate F-2) | MIC (Staphylococcus aureus; clinical isolate MS 8588) | MIC (Staphylococcus aureus; clinical isolate MS 8596) | MIC (Staphylococcus aureus; clinical isolate MS 8619) | MIC (Staphylococcus aureus; clinical isolate MS 8684) | MIC (Staphylococcus aureus; clinical isolate MS 8713)
0.79 µg/mL: MIC (Proteus vulgaris 3027) | MIC (Proteus mirabilis)
50%: Relative activity (β-lactamase)
12.5 µg/mL: MIC (Escherichia coli; clinical isolate GN 3452) | MIC (Escherichia coli; clinical isolate GN 3481) | MIC (Escherichia coli; clinical isolate K-2)
25 µg/mL: MIC (Pseudomonas aeruginosa; clinical isolate GN 221) | MIC (Pseudomonas aeruginosa; clinical isolate GN 2987)
50 µg/mL: MIC [1] | MIC (Pseudomonas aeruginosa; clinical isolate GN 82) | MIC (Pseudomonas aeruginosa; clinical isolate GN 163) | MIC (Pseudomonas aeruginosa; clinical isolate GN 376) | MIC (Pseudomonas aeruginosa; clinical isolate GN 383) | MIC (Pseudomonas aeruginosa; clinical isolate GN 1091) | MIC (Pseudomonas aeruginosa; [5])
> 200 µg/mL: MIC (Proteus rettgeri) | MIC (Klebsiella pneumoniae [3]) | MIC (Escherichia coli; clinical isolate GN 3465) | MIC (Escherichia coli; clinical isolate GN 3611) | MIC (Escherichia coli; clinical isolate K-3) | MIC (Staphylococcus aureus; clinical isolate F-5) | MIC (Klebsiella pneumoniae [4]; clinical isolate GN 917) | MIC (Klebsiella pneumoniae [4]; clinical isolate GN 3850) | MIC (Klebsiella pneumoniae [4]; clinical isolate GN 4081) | MIC (Klebsiella pneumoniae [4]; clinical isolate GN 4117)
< 0.4 µg/mL: MIC (Proteus morganii) | MIC (Proteus vulgaris)
